For test [1], the system named is rat insulinoma cells (INS1). Particulars: cited from earlier work.
Test [2] relates to male lean C57BL6 mice. Put plainly: Insulin levels post glucose dosing by ELISA (Example 1). The note with it: 5 μg/mouse, oral glucose 3 g/kg. Format: in vivo. Here is the method:
(§1) In this experiment, male lean C57BL6 mice were used. […] The mice were randomized to achieve similar body weight and glucose for each group before dosing. All animals were subjected to fasting at the start of the dark period (Group 1-4). Food was removed, and bedding materials were replaced with fresh bedding to eliminate any residual food. Animals remained under fast until the 120 minute time point was taken. Water was made available ad libitum throughout the study. A 30 mg/mL stock solution of melatonin (30 mg melatonin in 1 ml of pure sesame oil) was made. From this stock solution, 10 μL of stock was taken and diluted with 990 μL of sesame oil, resulting in a solution concentration of 300 μg/ml. This was then diluted 1:18, resulting in a final concentration of 16.6-16.7 μg/mL. Mice received 0.3 ml by subcutaneous injection (5 μg/mouse). […] Insulin and blood glucose levels were measured by standard methods. The oral glucose tolerance test was carried out as follows using a glucose oxidase reaction measured by a Precision glucometer. […] Blood glucose level of all animals in Group 1-4 were measured at time 0 (right before the glucose dosing), 5, 10, 20, 30, 60 and 120 minutes post glucose dosing (7 time points). Insulin levels were also measured at 0, 30, 60, and 120 minutes from separate collections of tail vein blood obtained post glucose dosing by Crystal Chemistry ELISA.

In test [3] the test system is male C57BL6 DIO mice. Put plainly: Oral glucose tolerance test, blood glucose levels (Example 2). The format is in vivo. Here is the method: In this experiment, male C57BL6 DIO mice (10-11 weeks old, n=52) were used and maintained on a high fat diet. A total of 49 animals were used in this study. […] The mice were randomized to achieve similar body weight and glucose for each group before dosing. All animals were subjected to fasting at the start of the dark period (Groups 1-7). Food was removed, and bedding materials were replaced with fresh bedding to eliminate any residual food. Animals remained under fast until the 120 minute time point was taken. Water was made available ad libitum throughout the study. A 30 mg/mL stock solution of melatonin (30 mg melatonin in 1 ml of pure sesame oil) was made. From this stock solution, 10 μL of stock was taken and diluted with 990 μL of sesame oil, resulting in a solution concentration of 300 μg/ml. This was then diluted 1:18, resulting in a final concentration of 16.6-16.7 μg/mL. The doses of melatonin were adjusted based on the weight of the mouse. […] Blood glucose levels were measured by standard methods. […] Blood glucose level of all animals in Groups 1-7 were measured at time 0 (right before the glucose dosing), 15, 30, 60 and 120 minutes post glucose dosing (5 time points). Body weight was recorded twice per week prior to the study, and before the blood glucose level measurements. […]

The subject of test [4] is male lean C57BL6 mice. Put plainly: Oral glucose tolerance test, blood glucose levels (Example 1). The format is in vivo. Particulars: 5 μg/mouse, oral glucose 3 g/kg. As to the method: as §1
The subject of test [5] is rat model of diabetes. Particulars: cited from earlier work.
Test [6] concerns mouse C2C12 skeletal muscle cells. The note with it: cited from earlier work.
Where [7] appears, read: cells exposed to melatonin and GLP-1 at the same time.
[8] abbreviates: overnight pretreatment with melatonin.

Take `COc1ccc2[nH]cc(CCNC(C)=O)c2c1` [melatonin, N-acetyl-5-methoxyindole-3-ethaneamine]: in test [1] (setting [7]), the “GLP-1 induced gene expression” value was “antagonized” and the “GLP-1 induced insulin secretion” value is on record as “antagonized”. In test [1] (setting [8]), the “cAMP-response element-mediated gene expression in response to GLP-1 or forskolin” value is “marked increase”, the “insulin secretion in response to GLP-1 or forskolin” value was “marked increase” and the “insulin-promoter-driven luciferase gene expression in response to GLP-1 or forskolin” value is reported as “marked increase”. Moreover, the insulin levels result in test [2] (1-hour melatonin dose, SC -1 h, FIG. 1D) is reported as “lower”. The “insulin levels compared to vehicle alone” value in test [2] (12-hour melatonin dose, SC -12 h, FIG. 1B) is “much higher”. In test [3] (12-hour melatonin dose SC with sitagliptin 10 mg/kg PO), the “effect on the anti-diabetic action of sitagliptin” value was “does not inhibit”. Besides, in test [4] (1-hour melatonin dose, SC -1 h, FIG. 1C), the “glucose levels compared to vehicle alone” value is recorded as “not appreciably different”. Also, the “blood glucose levels compared to vehicle alone” value in test [4] (12-hour sustained melatonin dose, SC -12 h, FIG. 1A) is reported as “significantly decreased”. In addition, in test [5], the blood glucose levels result is recorded as “without affecting” and the “protection against hyperglycemia-induced oxidative damage” value is “limited protection”. For the same compound, in test [6], the glucose transport entry was “stimulates”.
For the compound `N[C@@H](CC(=O)N1CCn2c(nnc2C(F)(F)F)C1)Cc1cc(F)c(F)cc1F` [Sitagliptin], the blood glucose levels result in test [3] (sitagliptin 10 mg/kg alone, PO -1 h, FIG. 2B) is given as “decrease”.

Source of the values: patent US20120232003A1, “COMPOSITIONS AND METHODS FOR DIABETES TREATMENT” (priority 2009, published 2012).
